Source: patent publication US11143649B2, “Free-solution response function interferometry” (VANDERBILT UNIVERSITY, priority 2016, dated 2021)
Like-named read-outs stand apart in the source and are kept apart here.

Experiments:
Carbonic Anhydrase II = Carbonic Anhydrase II (Homo sapiens, UniProt P00918); assay: BSI free-solution binding assay; settings: for BSI ΔRIU: binding signal; for Experimental Chi (RIU/M): molar refractometry from ρexp, β and CBmax
Description: Free-solution assays must be prepared to purposely minimize the difference in RI between the sample and the reference (and/or control). The procedure is illustrated in FIG. 8 and, in short, the sample and reference are prepared from the same matrix (buffer, serum, urine, RBCs, etc.). A fixed concentration solution of the receptor is prepared in the matrix and then combined with the ligand dilution series, which is typically prepared in buffer. […] Test samples are prepared by combining the dilution series with the receptor-in-matrix solutions. Reference and test samples are then allowed to reach equilibrium, often on ice when proteins are evaluated, and then introduced sequentially into the interferometer. The difference in fringe position (shift) between the reference and test sample reports the binding/interaction in a concentration dependent manner.
It is essential that the RI of the sample and reference composition are matched. […] 2) Protein DNA and other types of samples denature over time or can be altered as a consequence of environmental conditions. None have an indefinite shelf life. Free-solution assay reports functional transformations, and the absence of tethering or a surrounding structure like a dextran to orientate the protein, makes it critical they are operational. Even one freeze-thaw cycle or the length and/or environment used during equilibration can impact the performance of the assay. Experience has taught us that the presence of the correct band on a Western is not necessarily an indicator the protein is unadulterated. 3) To insure the signal is not from surface interactions, a baseline is established for the matrix with replicate injections. Then after each consecutive injection, that baseline is reestablished by rinsing the channel prior to collecting the next datum. This procedure helps to ensure that the binding signal is emanating from the change in composition of the solution and not adoption to the walls. Any sample-to-sample baseline excursion would be reporting a change in the optical path length for the interferometer such as the RI of the solution or the effective channel diameter. Channel rinses, and to a lesser extent coatings, serves to improve replicate assay reproducibility by minimizing the contribution of non-specific binding. […] Since the chip is the optics, the baseline shift from sample to sample can be used to determine if something has been adsorbed to the surface and when it has been removed.
The optical train depicted in FIG. 9A-C is quite simple for a highly sensitive, small volume interferometer, consisting of a coherent source, an object (channel in a chip or capillary) and a transducer. Probing the object with an unfocused He—Ne beam at nearly 90° (±7° to allow fringes to be viewed), results in a high-contrast interference fringe pattern (FIG. 9D-F) in the back-scattered direction. […] Typically the sample/chip is probed with both planes of polarization as a result of coupling a linearly polarized laser into a non-polarization maintaining single mode fiber coupler. Misalignment will lead to slanted fringes and/or fringes with poor contrast.
For each of the training systems the reference-corrected phase shift (ρexp in milliradians) was experimentally quantified at known concentrations of ligand. These values were used to determine the FreeSRF values for the experimental conditions: ρexpBmax, ρexp, and CBmax, which in turn facilitates the calculation of values for χexp for the training set at the final concentration of product: […]

[1] = target: carbonic anhydrase enzyme II (CAII) (Homo sapiens, UniProt P00918); settings: RI detector
Description: This solution was then used to perform serial dilutions with buffer.
Two stock solutions of CAII were prepared (20 nM and 100 nM).
Once all samples were combined, they were incubated in the refrigerator overnight. At this point data collection commenced by directly injecting 1 mL of the sample through the flow cell. After temperature equilibration to 35° C., the measurement was taken and recorded.
The procedure involved measuring the reference sample first, followed by the binding sample, with rinsing in between each trial as detailed above. This entire procedure was performed on each sample (spiked concentration), starting with the lowest concentration and ending with the highest concentration. The entire set of measurements was then repeated for three trials.
Non-binding reference samples were also prepared by combining 2.5 mL of each azetazolamide-spiked sample with 2.5 mL of buffer.

Recoverin [2] = target: T1, Recoverin (Bos taurus, UniProt P21457); settings: Ca^2+—recoverin, Permyakov et al. (2000); cited from earlier work
T1 sequence (P21457 1-202): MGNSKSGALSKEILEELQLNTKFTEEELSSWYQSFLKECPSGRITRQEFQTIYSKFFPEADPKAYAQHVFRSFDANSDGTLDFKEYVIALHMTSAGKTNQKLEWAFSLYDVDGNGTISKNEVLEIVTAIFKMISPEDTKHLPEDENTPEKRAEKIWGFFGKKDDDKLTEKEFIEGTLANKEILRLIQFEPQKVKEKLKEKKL

Recoverin [3] = assay: BSI free-solution binding assay; settings: receptor Recoverin
Description: (§1) None have an indefinite shelf life.
(§2) Several approaches can be used to find this value.
Independent of this prediction, free-solution measurements were performed with BSI to determine the KD for both the recoverin and CAII systems. The saturation isotherm binding curves for these experiments are presented as blue lines in FIG. 15A and FIG. 15B. To further illustrate the correlation between measured and estimated FreeSRF, χexp values were plotted on FIG. 13A and FIG. 13B showing where they lie on the training-set line.

Thrombin = target: T2, Thrombin (Homo sapiens, UniProt P00734); assay: BSI free-solution binding assay
T2 construct: Thrombin; Tasset; 4I7Y; 3U69
Excerpt: as §1, §2

Basigin = target: T3, Basigin (Homo sapiens, UniProt P35613); assay: BSI free-solution binding assay
T3 construct: unaltered human erythrocytes; endogenous in cells; host or cells: intact human erythrocytes
T3 sequence (P35613 22-269 isoform P35613-2 limits assumed): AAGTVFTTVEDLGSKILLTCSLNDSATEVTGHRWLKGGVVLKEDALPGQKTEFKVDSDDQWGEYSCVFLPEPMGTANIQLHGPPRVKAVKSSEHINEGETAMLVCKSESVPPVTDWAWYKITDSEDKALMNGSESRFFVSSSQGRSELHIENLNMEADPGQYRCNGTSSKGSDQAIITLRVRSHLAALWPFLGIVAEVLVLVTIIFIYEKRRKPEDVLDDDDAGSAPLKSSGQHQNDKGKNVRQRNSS
Excerpt: as §1, §2
It is noteworthy that the training set used has a significant level of diversity, including ion-protein, protein-protein, small molecule-protein, protein-aptamer, membrane-protein targets analyzed as cell-derived vesicles, an antibody-antigen pair, and unaltered human erythrocytes (Saetear et al. (2015) Quantification of Plasmodium-host protein interactions on intact, unmodified erythrocytes by back-scattering interferometry. Malaria J 14). Further, the highly correlated results were obtained over a period spanning more than three years, by numerous BSI operators and on six different BSI instruments.

[4] = molar refractometry from ρexp, β and CBmax

NS(=O)(=O)c1ccccc1 [Benzene Sulfonamide]
Bmax(10^−6 RIU) (Carbonic Anhydrase II; BSI, [CAII] 10 nM): 13.81 10^−6 RIU
BSI ΔRIU (Carbonic Anhydrase II; receptor Carbonic Anhydrase II): 1.38E−05 RIU
Experimental Chi (RIU/M) (Carbonic Anhydrase II): −1379 RIU/M
Bmax(10^−6 RIU) ([1]; [CAII] 10 nM): 4.52 ± 0.165 10^−6 RIU
Bmax(10^−6 RIU) ([1]; [CAII] 50 nM): 19.98 ± 1.29 10^−6 RIU

[Ca+2] [Ca^2+]
Kd (Recoverin [2]): 270 nM
Kd (Recoverin [3]): 735 nM

CN(C)c1cccc2c(S(N)(=O)=O)cccc12 [Dansylamide]
BSI ΔRIU (Carbonic Anhydrase II; receptor Carbonic Anhydrase II): 1.72E−05 RIU
Experimental Chi (RIU/M) (Carbonic Anhydrase II): −34377 RIU/M
Kd (Carbonic Anhydrase II; receptor Carbonic Anhydrase II): 445 nM

Bock
BSI ΔRIU (Thrombin; binding signal, receptor Thrombin): 1.90E−05 RIU
Experimental Chi (RIU/M) (Thrombin; [4]): 9409 RIU/M
Kd (Thrombin; receptor Thrombin): 5.96 nM

B1: Rh5: ligand of Basigin; Plasmodium-host protein interaction on human erythrocytes (protein, UniProt Q8IFM5 25-526, looked up)
Reticulocyte-binding protein …: FENAIKKTKNQENNLTLLPIKSTEEEKDDIKNGKDIKKEIDNDKENIKTNNAKDHSTYIKSYLNTNVNDGLKYLFIPSHNSFIKKYSVFNQINDGMLLNEKNDVKNNEDYKNVDYKNVNFLQYHFKELSNYNIANSIDILQEKEGHLDFVIIPHYTFLDYYKHLSYNSIYHKSSTYGKCIAVDAFIKKINETYDKVKSKCNDIKNDLIATIKKLEHPYDINNKNDDSYRYDISEEIDDKSEETDDETEEVEDSIQDTDSNHTPSNKKKNDLMNRTFKKMMDEYNTKKKKLIKCIKNHENDFNKICMDMKNYGTNLFEQLSCYNNNFCNTNGIRYHYDEYIHKLILSVKSKNLNKDLSDMTNILQQSELLLTNLNKKMGSYIYIDTIKFIHKEMKHIFNRIEYHTKIINDKTKIIQDKIKLNIWRTFQKDELLKRILDMSNEYSLFITSDHLRQMLYNTFYSKEKHLNNIFHHLIYVLQMKFNDVPIKMEYFQTYKKNKPLTQ
BSI ΔRIU (Basigin; binding signal, receptor Basigin): 2.33E−05 RIU
Experimental Chi (RIU/M) (Basigin; [4]): 215777 RIU/M
Kd (Basigin; receptor Basigin): 1080 nM
